# Tested on: Acinetobacter baumannii
# Assay: Antibacterial activity against Acinetobacter baumannii S1 assessed as planktonic growth inhibition incubated for 18 to 24 hrs by CLSI protocol based assay
# Assay type: functional
# Details: time 18-24 hrs
row,Structure (SMILES),MIC
1,O=C(/C=C/c1ccccc1)Nc1ncccn1,> 256 µg/mL
2,Cc1cc(C)c(C(=O)Nc2ncccn2)c(C)c1,> 256 µg/mL
3,CCCCCCCCCCCCCC(=O)Nc1nccc(C)n1,> 256 µg/mL
4,CCCCCCCC(=O)Nc1ncccn1,> 256 µg/mL
5,CCCCCCCCCCCCCC(=O)Nc1nc(C)cc(Cl)n1,> 256 µg/mL
6,O=C(Nc1ncccn1)C(F)(F)C(F)(F)C(F)(F)F,> 256 µg/mL
7,CCCCCCCCCC(=O)Nc1ncccn1,> 256 µg/mL
8,CCCCCCCCCCCCCC(=O)Nc1ncc(Br)cn1,> 256 µg/mL
9,CC(C)CC(=O)Nc1ncccn1,> 256 µg/mL
10,CCCCCC(=O)Nc1ncccn1,> 256 µg/mL
11,O=C(Nc1ncccn1)C1CCC1,> 256 µg/mL

# Tested on: Acinetobacter baumannii
# Assay: Antibiofilm activity against Acinetobacter baumannii S1 assessed as inhibition rate of biofilm formation at 100 uM incubated for 18 to 24 hrs by crystal violet staining based assay (reference value: 28.8 +/- 8.21%)
# Assay type: functional
# Parameters: scale not given: the % may be the effect or the level left
# Details: time 18-24 hrs
row,Structure (SMILES),Activity
1,O=C(/C=C/c1ccccc1)Nc1ncccn1,13.6%
2,Cc1cc(C)c(C(=O)Nc2ncccn2)c(C)c1,26.9%
3,CCCCCCCCCCCCCC(=O)Nc1nccc(C)n1,26.9%
4,CCCCCCCC(=O)Nc1ncccn1,17.8%
5,CCCCCCCCCCCCCC(=O)Nc1nc(C)cc(Cl)n1,46.6%
6,O=C(Nc1ncccn1)C(F)(F)C(F)(F)C(F)(F)F,19.9%
7,CCCCCCCCCC(=O)Nc1ncccn1,33.2%
8,CCCCCCCCCCCCCC(=O)Nc1ncc(Br)cn1,31.1%
9,CC(C)CC(=O)Nc1ncccn1,3.8%
10,CCCCCC(=O)Nc1ncccn1,23.3%
11,O=C(Nc1ncccn1)C1CCC1,26.8%

# — ChEMBL document CHEMBL5150056, “Synthesis and antibiofilm evaluation of N-acyl-2-aminopyrimidine derivatives against Acinetobacter baumannii” (Bioorg Med Chem, 2022)
